# Measurements published in patent publication US20220265646A1, “PIEZO AGONISTS FOR PREVENTING OR REVERTING ABNORMAL AMYLOID DEPOSITION” (ITÄ-SUOMEN YLIOPISTO, priority 2019, published 2022).
# Tests used:
# N2a cells = test: Apoptosis assay in N2a cells under hypoxia; type: cell-based; settings: 5 μM Yoda1 three days, 1% hypoxia 24 h
# Description: Apoptosis assay in N2a cells. N2a cells were treated with 5 μM Yoda1 or vehicle for three consecutive days and exposed to 1% hypoxia as described above for 24 h before collecting the cells for apoptosis assay. The apoptotic cells were labeled with APC Annexin Ready Flow -dye (1:12.5 dilution, Invitrogen, Carlsbad, Calif., USA) in Annexin V Binding Buffer (10 mM HEPES, 150 mM NaCl, 2.5 mM CaCl2 in PBS, pH 7.4). 4′,6-Diamidino-2-Phenylindole, Dilactate (DAPI; Invitrogen, Carlsbad, Calif., USA) staining was added at 1:3300 dilution to label late apoptotic and necrotic cells. The samples were run with CytoFLEX S instrument (Beckman Coulter Life Sciences, Indianapolis, Ind., USA), and the results were analysed with CytExpert software (version 2.3.0.84, Beckman Coulter Life Sciences, Indianapolis, Ind., USA). The results of hypoxic samples were normalized to corresponding normoxic samples.
# hIPSC-derived microglia = test: Cytokine measurement (cytokine bead assay) in LPS-treated iPSC-derived microglia; type: cell-based, human; settings: Yoda1 20 μM (Y20), n=4 per group
# Description: Cytokine measurement. The impact of Piezo1Rs effect on the capacity of the iPSC derived microglia to release cytokines was evaluated using cytokine bead assay (CBA, PD Pharmingen)). Shortly, prior to the experiment IPSCs were plated in 24-well plate at 70,000 cells/cm^2 and cultured for 48 hours. […] Next, media were collected, centrifuged to remove any cell debris, and the supernatant was frozen at −70° C. Cytokines were analyzed with cytometric bead array mouse inflammation kit (BD Biosciences) according to manufacturer's instructions.
# primary cortical neurons = test: Measurement of neurite outgrowth in primary cortical neurons; type: cell-based, mouse; settings: 5 μM Yoda1, imaging over 150 hours, versus vehicle
# Description: Measurement of neurite outgrowth in primary cortical neurons. Primary cortical neuron cultures were prepared from mouse embryos of embryonic day 15. The cortices were dissected, and tissue dissociated with 0.0125% trypsin (for 15 min at 37° C., Sigma-Aldrich, St. Louis, Mo., USA). After trypsin inactivation and washing the cells were counted and plated on 48-well-plates (coated with poly-D-lysine, Sigma-Aldrich, St. Louis, Mo., USA) at a density of 125 000 cells/well or on 6-well-plates at a density of 1.8 million cells/well in Neurobasal media supplemented with 2% B27 and 500 μM L-glutamine (all ThermoFisher Scientific, Waltham, Mass., USA) and 10 μg/ml of gentamicin (Sigma Aldrich, St. Louis, Mo., USA). On day 3 or 5 in vitro (DIV) the neurons were fed by changing 50% of media. The neurons were placed in IncuCyte® S3 Live Cell Analysis System (Essen
# BioScience Ltd., Hertfordshire, UK) on DIV 0 and treated with 5 μM Yoda1 (Tocris, Bio-Techne Ltd., Abingdon, Oxfordshire, UK) once on DIV 0 or daily until DIV 7, and images were taken every 8 hours for the analysis of neurite length and branch points.
# [1] = test system: 5xFAD transgenic mice modeling Alzheimer's disease; test: 5xFAD transgenic mice, intraventricular cannula infusion, immunohistochemistry for Iba1 and Aβ (WO2); type: in vivo, mouse; settings: 5xFAD mice, treated for 2 weeks
# Source text: To evaluate the effect of microglial Piezo1 Rs mechanosensor in vivo the present inventors used 5-month-old transgenic SXFAD male mice (Jackson Laboratories, Bar Harbor, Me., US) which were randomly divided into 3 groups. 5xFAD mice express human APP and PSEN1 transgenes with a total of five AD-linked mutations: the Swedish (K670N/M671L), Florida (1716V), and London (V7171) mutations in APP, and the M146L and L286V mutations in Presenilin-1 (PSEN1). These widely used mice recapitulate many AD-related phenotypes and have a relatively early and aggressive presentation. Amyloid plaques, accompanied by gliosis, are seen in mice as young as two months of age. Amyloid pathology is more severe in females than in males. Neuron loss occurs in multiple brain regions, beginning at about 5 months in the areas with the most pronounced amyloidosis. Mice display a range of cognitive and motor deficits. The animals were implanted with the intraventricular cannulas. Briefly, surgical anesthesia was induced using 5% isoflurane and maintained with 1.8% isoflurane (in 30% 02/70% N20). The temperature of the animals was maintained at 37±0.5° C. using a thermostatically controlled heating blanket with a rectal probe (Pan Lab, Harvard Apparatus). After the skull was exposed a small hole approximately 1 mm in diameter was drilled into the left hemisphere of the skull using following coordinates: m/l (medial/lateral) +1.1 mm, a/p (anterior/posterior) −0.3 mm, d/v (dorsal/ventral) −2.0 mm. […]
# Brain sample preparation and Immunohistochemistry. […] Next, Aβ deposits and microglial were detected. […] For quantification of Aβ and Iba1 immunoreactivities, the stained sections were imaged using 10× magnification in Zeiss Axio ImagerM.2 microscope equipped with Axiocam 506 mono CCD camera (Carl Zeiss, Oberkochen) running ZEN software (Carl Zeiss) for tailing and stitching of the images. Cortical and hippocampal Aβ and Iba1 immunoreactivities were quantified from 6 stained sections at 400 μm intervals per animal using MatLab code (MathWorks, MatLab 2017b). […]
# [2] = 0.05 μg/μl, 5 μl infusion once a day
compound,measurement,setting,value
Clc1cccc(Cl)c1CSc1nnc(-c2cnccn2)s1 [Yoda1],hypoxia-induced early apoptosis,N2a cells,almost completely block
same,hypoxia-induced late apoptosis,N2a cells,almost completely block
same,secretion of anti-inflammatory IL-10,hIPSC-derived microglia; LPS,increases the secretion
same,LPS induced secretion of pro-inflammatory IL-6,hIPSC-derived microglia,prevented the LPS induced secretion
same,LPS induced secretion of pro-inflammatory IL-8,hIPSC-derived microglia,prevented the LPS induced secretion
same,LPS induced secretion of pro-inflammatory MCP1,hIPSC-derived microglia,prevented the LPS induced secretion
same,branch points of neurites,primary cortical neurons,more branching points
same,neurite length,primary cortical neurons,extended neurite length
same,microglial accumulation near the Aβ deposits,[1],enhanced microglial accumulation
same,Iba1 immunoreactivity in cortex and hippocampus,[1]; [2],significantly increased
same,extent of brain Aβ load in cortex and hippocampi (WO2 staining),[1]; [2],significant reduction
